One series deals with T1, 5-HT2C receptor (Homo sapiens, UniProt P28335).
T1 construct: host or cells: unnamed cell lines
T1 sequence (P28335 33-458): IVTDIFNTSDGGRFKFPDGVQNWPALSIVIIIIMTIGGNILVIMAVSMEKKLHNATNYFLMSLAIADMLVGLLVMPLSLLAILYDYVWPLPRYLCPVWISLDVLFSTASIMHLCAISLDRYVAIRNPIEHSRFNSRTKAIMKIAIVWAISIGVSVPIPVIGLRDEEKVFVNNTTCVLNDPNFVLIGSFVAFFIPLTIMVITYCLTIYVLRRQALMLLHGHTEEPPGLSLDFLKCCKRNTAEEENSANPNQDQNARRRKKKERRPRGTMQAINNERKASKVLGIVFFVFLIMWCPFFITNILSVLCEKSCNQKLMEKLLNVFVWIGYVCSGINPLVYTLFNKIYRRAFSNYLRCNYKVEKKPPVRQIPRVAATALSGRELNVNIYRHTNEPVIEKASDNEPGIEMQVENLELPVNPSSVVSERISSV
Description: Calcium mobilization assay, antagonist format, 5-HT2C receptor. Format: cell-based. Set-up: dose or concentration left out as unconfirmed. The method, then:
(§1) Protocol—in vitro testing at select 5-hydroxytryptamine (5-HT; serotonin) receptors was conducted.
(§2) • 1. Cell lines were expanded from freezer stocks according to standard procedures. • 2. Cells were seeded in a total volume of 20 μL into black-walled, clear-bottom, Poly-D-lysine coated 384-well microplates and incubated at 37° C. for the appropriate time prior to testing.
(§3) • 1. Assays were performed in 1×Dye Loading Buffer consisting of 1× Dye, 1× Additive A and 2.5 mM Probenecid in HBSS/20 mM Hepes. Probenicid was prepared fresh. • 2. Cells were loaded with dye prior to testing. Media was aspirated from cells and replaced with 20 μL Dye Loading Buffer. • 3. Cells were incubated for 30-60 minutes at 37° C.
• 1. For antagonist determination, cells were pre-incubated with sample followed by agonist challenge at the EC80 concentration. • 2. Intermediate dilution of sample stocks was performed to generate 3× sample in assay buffer. • 3. After dye loading, cells were removed from the incubator and […] 3× sample was added. Cells were incubated for 30 minutes at room temperature in the dark to equilibrate plate temperature. Vehicle concentration was 1%. • 4. Compound antagonist activity was measured on a FLIPR Tetra (MDS). Calcium mobilization was monitored for 2 minutes and 10 μL EC80 agonist in HBSS/20 mM Hepes was added to the cells 5 seconds into the assay.
(§4) • 1. Compound activity was analyzed using CBIS data analysis suite (ChemInnovation, CA). • 2. For agonist mode assays, percentage activity is calculated using the following formula: % Activity=100%×(mean RFU of test sample−mean RFU of vehicle control)/(mean MAX RFU control ligand −mean RFU of vehicle control). • 3. For positive allosteric mode assays, percentage modulation was calculated using the following formula: % Modulation=100%×((mean RFU of test sample−mean RFU of EC20 control)/(mean RFU of MAX control ligand −mean RFU of EC20 control)). • 4. For antagonist and negative allosteric modulation mode assays, percentage inhibition is calculated using the following formula: % Inhibition=100%×(1−(mean RFU of test sample−mean RFU of vehicle control)/(mean RFU of EC80 control−mean RFU of vehicle control)).
(§5) As discussed above, agonism, or partial agonism, of the 5-HT2A receptor (also known as positive allosteric modulation, or 5-HT2A modulation) is useful for the treatment of neurological and psychiatric disorders. For example, 5-HT2A agonism has been correlated with the promotion of neural plasticity (Ly et al., 2018). Agonism of the 5-HT2B receptor has been associated with unwanted cardiac valvulopathy side-effects, a form of cardio-toxicity (Rothman et al., Circulation. 2000, 102, 2836-2841; Fitzgerald et al., Molecular Pharmacology 2000, 57, 75-81). […] Antagonists of the 5-HT2C receptor are also useful for the treatment of neurological and psychiatric disorders (Kennett et al., Neuropharmacology 1997, 36, 609-620).

The target of another series is T2, 5-HT2B receptor (Homo sapiens, UniProt P41595).
T2 construct: host or cells: unnamed cell lines
T2 sequence (P41595 whole entry): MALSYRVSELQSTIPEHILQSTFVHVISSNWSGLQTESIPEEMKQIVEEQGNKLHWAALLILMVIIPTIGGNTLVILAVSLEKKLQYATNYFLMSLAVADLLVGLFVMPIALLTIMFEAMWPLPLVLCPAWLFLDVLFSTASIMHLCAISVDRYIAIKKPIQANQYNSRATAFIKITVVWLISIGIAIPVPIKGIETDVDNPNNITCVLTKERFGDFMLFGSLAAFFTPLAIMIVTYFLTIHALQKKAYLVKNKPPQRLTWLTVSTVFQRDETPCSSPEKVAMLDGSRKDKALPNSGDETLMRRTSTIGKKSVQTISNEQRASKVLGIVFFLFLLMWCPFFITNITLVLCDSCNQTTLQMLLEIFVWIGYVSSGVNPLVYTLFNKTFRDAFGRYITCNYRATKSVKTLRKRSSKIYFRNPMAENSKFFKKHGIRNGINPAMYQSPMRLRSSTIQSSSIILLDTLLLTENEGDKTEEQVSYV
Briefly: Calcium mobilization assay, agonist format, 5-HT2B receptor. Format: cell-based. Particulars: read-out: 5-HT2B agonist Efficacy @ 5 µM. The method, then: as §1, §2, §3
(§6) • 1. For agonist determination, cells were incubated with sample to induce response. • 2. After dye loading, cells were removed from the incubator and 10 μL HBSS/20 mM Hepes was added. 3× vehicle was included in the buffer when performing agonist dose curves to define • the EC80 for subsequent antagonist assays. Cells were incubated for 30 minutes at room temperature in the dark to equilibrate plate temperature. • 3. Intermediate dilution of sample stocks was performed to generate 4× sample in assay buffer. • 4. Compound agonist activity was measured on a FLIPR Tetra (MDS). Calcium mobilization was monitored for 2 minutes and 10 μL 4× sample in HBSS/20 mM Hepes was added to the cells 5 seconds into the assay.
as §4, §5

For a further series, the target named is T3, 5-HT2A receptor (Homo sapiens, UniProt P28223).
T3 construct: host or cells: unnamed cell lines
T3 sequence (P28223 whole entry): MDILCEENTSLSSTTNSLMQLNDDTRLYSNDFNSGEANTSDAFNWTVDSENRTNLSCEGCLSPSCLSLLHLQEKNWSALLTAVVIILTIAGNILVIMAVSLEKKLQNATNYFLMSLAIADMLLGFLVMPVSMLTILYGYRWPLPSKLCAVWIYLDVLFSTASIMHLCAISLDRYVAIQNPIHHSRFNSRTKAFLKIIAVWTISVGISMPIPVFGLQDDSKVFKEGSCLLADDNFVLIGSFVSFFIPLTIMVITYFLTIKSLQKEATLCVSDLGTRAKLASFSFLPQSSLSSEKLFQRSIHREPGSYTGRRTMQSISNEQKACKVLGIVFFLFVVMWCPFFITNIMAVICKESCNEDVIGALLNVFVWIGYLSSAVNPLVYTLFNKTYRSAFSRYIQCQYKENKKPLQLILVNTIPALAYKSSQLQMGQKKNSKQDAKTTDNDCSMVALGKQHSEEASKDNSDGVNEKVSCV
Briefly: Calcium mobilization assay, agonist format, 5-HT2A receptor. Particulars: read-out: 5-HT2A agonist Efficacy @ 10 µM. Format: cell-based. The method, then:
as §1, §2, §3, §6, §4, §5

Series [1] is described as follows: Metabolic stability in human liver microsomes. Format: in vitro ADME. Particulars: values marked * average of two experiments; for CLint scaled at 0.2 μM: pH 7.4, scaled from CLint(mic). How it is done: Microsomal Assay: Human liver microsomes (20 mg/mL) are obtained from Xenotech, LLC (Lenexa, KS). β-nicotinamide adenine dinucleotide phosphate, reduced form (NADPH), magnesium chloride (MgCl2), and dimethyl sulfoxide (DMSO) are purchased from Sigma-Aldrich.
Determination of Metabolic Stability: 7.5 mM stock solutions of test compounds of the above structural formula (e.g., of an embodiment or aspect of embodiment thereof described herein), or pharmaceutically acceptable salt thereof, are prepared in DMSO. […] The diluted microsomes are added to wells of a 96-well deep-well polypropylene plate in triplicate. […] Reactions are initiated by addition of pre-warmed NADPH solution. The final reaction volume is 0.5 mL and contains 4.0 mg/mL human liver microsomes, 0.2 μM test compound, and 2 mM NADPH in 0.1 M potassium phosphate buffer, pH 7.4, and 3 mM MgCl2. The reaction mixtures are incubated at 37° C., and […] aliquots are removed at 0, 5, 10, 20, and 30 minutes and added to shallow-well 96-well plates which contain […] of ice-cold ACN (acetonitrile) with internal standard to stop the reactions. The plates are stored at 4° C. for 20 minutes after which […] of water is added to the wells of the plate before centrifugation to pellet precipitated proteins. Supernatants are transferred to another 96-well plate and analyzed for amounts of parent remaining by LC-MS/MS using an Applied Bio-systems API 4000 mass spectrometer. The same procedure is followed for the non-deuterated counterpart of the compound and the positive control, 7-ethoxycoumarin (1 μM). Testing is done in triplicate.
Data analysis: The in vitro Ti/s for test compounds are calculated from the slopes of the linear regression of % parent remaining (In) vs incubation time relationship.
[formula] • k=−[slope of linear regression of % parent remaining (In) vs incubation time] • The apparent intrinsic clearance is calculated using the following equation: […]
Data analysis is performed using Microsoft Excel Software.

These results are taken from US20260138985A1, “Azepino-Indoles for the Treatment of Neurological and Psychiatric Disorders” (Terran Biosciences Inc., priority 2021, published 2026).

In the case of `CN1CCc2[nH]c3cc(S(F)(F)(F)(F)F)ccc3c2CC1` [Compound 109, pentafluoro-(3-methyl-2,4,5,6-tetrahydro-1H-azepino[4,5-b]indol-8-yl)-λ^6-sulfane], at 5-HT2C receptor, the inhibition was determined as 101%. Also, the activation at 5 µM at 5-HT2B receptor came out at 8.5%. In addition, the activation at 10 µM at 5-HT2A receptor amounted to 13.7%.

Take `CN1CCc2[nH]c3cccc(S(F)(F)(F)(F)F)c3c2CC1` [Compound 110, pentafluoro-(3-methyl-2,4,5,6-tetrahydro-1H-azepino[4,5-b]indol-10-yl)-λ^6-sulfane]: the inhibition on 5-HT2C receptor was 103%. The activation at 5 µM at 5-HT2B receptor was found to be 4%. Moreover, the activation at 10 µM on 5-HT2A receptor worked out at 8.9%.

Consider `CN1CCc2[nH]c3cc(OC4CC4)ccc3c2CC1` [Compound 117, 8-(cyclopropoxy)-3-methyl-2,4,5,6-tetrahydro-1H-azepino[4,5-b]indole], for which the inhibition on 5-HT2C receptor was 99.7%. Besides, at 5-HT2B receptor, the activation at 5 µM was 1.7%. Further, on 5-HT2A receptor, the activation at 10 µM was 10.4%.

In the case of `CN1CCc2[nH]c3c4c(ccc3c2CC1)OCCC4` [Compound 122, 9-methyl-2,3,7,8,9,10,11,12-octahydro-1H-azepino[4,5-b]pyrano[2,3-g]indole], the inhibition at 5-HT2C receptor came to 98.9%. In addition, at 5-HT2B receptor, the activation at 5 µM was -0.8%. The activation at 10 µM at 5-HT2A receptor was found to be 54%.

For the compound `CN1CCc2[nH]c3c4c(ccc3c2CC1)OCC4` [Compound 124, 8-methyl-1,2,6,7,8,9,10,11-octahydroazepino[4,5-b]furo[2,3-g]indole], the inhibition at 5-HT2C receptor was found to be 93.1%. For the same compound, on 5-HT2B receptor, the activation at 5 µM was -0.7%. For the same compound, the activation at 10 µM on 5-HT2A receptor came out at 83.8%.

Take `CN1CCc2[nH]c3cc(C#N)ccc3c2CC1` [Compound 136, 3-methyl-2,4,5,6-tetrahydro-1H-azepino[4,5-b]indole-8-carbonitrile]: the inhibition at 5-HT2C receptor worked out at 98.6%. The activation at 5 µM on 5-HT2B receptor is -1%. Moreover, the activation at 10 µM at 5-HT2A receptor stood at 41.8%.

For `CN1CCc2[nH]c3cccc(C#N)c3c2CC1` [Compound 138, 3-methyl-2,4,5,6-tetrahydro-1H-azepino[4,5-b]indole-10-carbonitrile], the inhibition on 5-HT2C receptor is 100%. Besides, on 5-HT2B receptor, the activation at 5 µM is -0.4%. In addition, at 5-HT2A receptor, the activation at 10 µM was found to be 15.4%.

On to `COc1ccc2c3c([nH]c2c1)CCN(CCO)CC3` [Compound 140, 2-(8-methoxy-2,4,5,6-tetrahydro-1H-azepino[4,5-b]indol-3-yl)ethanol], for which the inhibition at 5-HT2C receptor came to 93.8%. The activation at 5 µM on 5-HT2B receptor was -0.9%. Further, the activation at 10 µM at 5-HT2A receptor worked out at 48.1%.

Consider `COc1ccc2c3c([nH]c2c1)CCN(CCS(C)(=O)=O)CC3` [Compound 143, 8-methoxy-3-(2-methylsulfonylethyl)-2,4,5,6-tetrahydro-1H-azepino[4,5-b]indole], for which the inhibition on 5-HT2C receptor turned out to be 97.2%. Besides, the activation at 5 µM on 5-HT2B receptor was -0.1%. For the same compound, the activation at 10 µM on 5-HT2A receptor stood at 42.1%.

Regarding `COc1ccc2c3c([nH]c2c1)CCN(CCN(C)C)CC3` [Compound 144, 2-(8-methoxy-2,4,5,6-tetrahydro-1H-azepino[4,5-b]indol-3-yl)-N,N-dimethyl-ethanamine], on 5-HT2C receptor, the inhibition turned out to be 3.1%. Also, the activation at 5 µM at 5-HT2B receptor is -0.5%. At 5-HT2A receptor, the activation at 10 µM is -0.7%.

As for `[2H]C([2H])([2H])N1CCc2[nH]c3cc(OC4CC4)ccc3c2CC1` [Compound 145, 8-cyclopropoxy-3-(^2H3)methyl-1H,2H,3H,4H,5H,6H-azepino[4,5-b]indole], the inhibition on 5-HT2C receptor was found to be 101%. The activation at 5 µM on 5-HT2B receptor is 1.5%. At 5-HT2A receptor, the activation at 10 µM came to 5.8%.

As to `[2H]C([2H])([2H])Oc1ccc2c3c([nH]c2c1)CCN(C1CC1)CC3` [Compound 146, 3-cyclopropyl-8-(trideuteriomethoxy)-2,4,5,6-tetrahydro-1H-azepino[4,5-b]indole], the inhibition at 5-HT2C receptor amounted to 103%. Moreover, the activation at 5 µM on 5-HT2B receptor worked out at 9%. For the same compound, on 5-HT2A receptor, the activation at 10 µM worked out at 69.4%.

As for `COc1ccc2c3c([nH]c2c1)CCN(C1CC1)CC3` [Compound 164, 3-cyclopropyl-8-methoxy-2,4,5,6-tetrahydro-1H-azepino[4,5-b]indole], the inhibition at 5-HT2C receptor amounted to 100%. On 5-HT2B receptor, the activation at 5 µM was found to be 2.7%. Besides, the activation at 10 µM at 5-HT2A receptor stood at 61%.

Turning to `c1cc2c3c([nH]c2cc1OC1CC1)CCN(C1CC1)CC3` [Compound 165, 8-cyclopropoxy-3-cyclopropyl-1,2,3,4,5,6-hexahydroazepino[4,5-b]indole], at 5-HT2C receptor, the inhibition was 71.7%. The activation at 5 µM on 5-HT2B receptor was determined as 0.9%. On 5-HT2A receptor, the activation at 10 µM was -2.7%.

Turning to `CN1CCc2[nH]c3cc4c(cc3c2CC1)OCC4` [Compound 166, 8-methyl-2,3,5,6,7,8,9,10-octahydroazepino[4,5-b]furo[2,3-f]indole], the inhibition on 5-HT2C receptor turned out to be 97.9%. In addition, at 5-HT2B receptor, the activation at 5 µM amounted to 0.3%. Besides, the activation at 10 µM on 5-HT2A receptor was determined as 53.5%.

Regarding `O=C(O)Cc1ccccc1Nc1c(Cl)cccc1Cl` [Diclofenac, reference compound], the “CLint(mic)” value in series [1] (intrinsic clearance) is listed as 201.9* μL/min/mg. Further, the CLint scaled at 0.2 μM in series [1] was 182 mL/min/kg.

For `Cc1cc2c(cc1Cl)N(C(=O)Nc1ccc(Oc3cccnc3C)nc1)CC2` [SB242084, reference compound], the inhibition on 5-HT2C receptor was 101%.

With `C[C@]12CC[C@H]3[C@@H](CCC4=CC(=O)CC[C@@]43C)[C@@H]1CC[C@@H]2O` [Testosterone, reference compound], in series [1] (pH 7.4, intrinsic clearance, read-out: CLint(mic)), the microsomal CLint at 0.2 μM came out at 114 µL/min/mg. In series [1], the intrinsic clearance (CLint scaled) at 0.2 μM turned out to be 103 mL/min/kg.
